Laboratory results from patent US20110059969A1, “PIPERAZINES AS ANTI-OBESITY AGENTS” (ASTRAZENECA AB, priority 2007, published 2011).

Experiments:
JEG-3 cells [1] = test: [3H]-thymidine incorporation by JEG-3 cells (JEG-3 protocol); type: cell-based; conditions: FIG. 5
Method: In JEG-3 cells (choriocarcinoma cell line) leptin is able to stimulate proliferation up to 3 fold (Biol. Reprod. (2007) 76: 203-10). […] The radioactivity incorporated by the cells is an index of their proliferative activity and is measured in counts per minute (CPM) with a liquid scintillation beta counter.
This finding can be applied to test whether a compound is able to either reproduce the effect of leptin on cell proliferation (leptin receptor agonist mimetic) (i.e., a given compound will cause an increase in incorporated [^3H]-Thymidine by the cells) or to inhibit the effect of leptin (antagonistic effect) by preventing the leptin-mediated increase in [^3H]-thymidine incorporation.
This approach has the advantage of using a non-recombinant system and has reasonable reproducibility and robustness.

JEG-3 cells [2] = conditions: Biol. Reprod. (2007) 76: 203-10; cited from earlier work

EC50 (JEG-3 cells [1]; JEG-3 cells (choriocarcinoma cell line), read-out: EC50 of concentration-dependent increase in [3H]-thymidine incorporation): 2.1 nM
Substance: Leptin: hormone synthesized in fat cells that is believed to act in the hypothalamus to reduce food intake and body weight
concentration giving maximal effect on [3H]-thymidine incorporation (JEG-3 cells [1]; JEG-3 cells): 100 nM | stimulation of proliferation (JEG-3 cells [2]): up to 3 fold
